Measurements reported in ChEMBL document CHEMBL4418498, “Halogenated benzotropolones as atg4b inhibitors” (2018).

How the values were obtained:
[1] = molecular target: T1, Cysteine protease ATG4B (Homo sapiens) (UniProt Q9Y4P1); assay: Inhibition of Atg4B in human Jurkat T-cells assessed as reduction in everolimus-induced autophagy at […] incubated for 16 hrs by CYTO-ID-based phenotypical screening assay relative to control everolimus alone (reference value: 1 No unit); assay type: cell-based
T1 sequence (whole entry): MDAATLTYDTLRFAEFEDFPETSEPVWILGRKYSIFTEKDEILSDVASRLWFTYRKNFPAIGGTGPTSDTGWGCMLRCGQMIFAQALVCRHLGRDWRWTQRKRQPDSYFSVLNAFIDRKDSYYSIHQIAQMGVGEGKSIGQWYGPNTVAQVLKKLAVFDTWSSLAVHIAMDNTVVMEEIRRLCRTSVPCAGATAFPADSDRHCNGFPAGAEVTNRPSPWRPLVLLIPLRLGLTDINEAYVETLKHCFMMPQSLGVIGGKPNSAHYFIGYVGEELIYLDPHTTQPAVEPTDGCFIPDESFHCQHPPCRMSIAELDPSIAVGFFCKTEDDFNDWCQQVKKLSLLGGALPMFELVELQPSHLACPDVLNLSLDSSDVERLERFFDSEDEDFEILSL

[2] = Metabolic stability in mouse liver microsomes assessed as parent compound recovery after 30 mins in presence of NADPH regenerating system by LC-MS/MS analysis; assay type: ADME, Microsome; conditions: read-out: Drug recovery

| Ratio [1] | remaining at 0.5 h [2] [%] | SMILES |
| --- | --- | --- |
| 0.57 | – | Cn1cnc(N)c2ncnc1-2 |
| – | 100 | O=C(O)c1cc(O)c(=O)c2c(O)c(O)c(Br)cc2c1 |
